From patent US12636291B2, “Compositions and methods relating to use of agonists of ALPHA5-containing GABAA receptors” (Centre for Addiction and Mental Health, priority 2019, dated 2026)

Experiments:
heterozygous 5×FAD mice = test: Spontaneous alternation in the Y-Maze, 5×FAD Alzheimer's disease model pilot; type: in vivo, mouse; conditions: 6 months of age, acute i.p. 10 mg/kg vs vehicle, FIG. 23
Description: A pilot study was performed in the 5×FAD mouse Alzheimer's disease model system using 15 heterozygous animals tested from the age of 4 to 6 months. The same animals were tested monthly for spontaneous alternation in the Y-Maze test. When they reached the age of 6 months, 50% of the animals were injected i.p. with vehicle or with GL-II-73 (10 mg/kg).
Animals: For the experiments described above, young (n=11, age 2 months) and old male mice (N=23) were purchased from Charles River. Old mice were obtained at the age of 9-10 months and were kept in the animal facility until they reached the age of 22 months. Young mice (2 months old) were purchased when old mice had already reached the age of 22 months. All animals were single housed. Experiments were performed on mice aged 2 months (“young”) or 22 months (“old”) at the beginning of the experimental protocol. The second set of experiments with the Washout group included 8 young mice and 22 old mice. Old mice were split into 3 groups of 7-8 between “Old”, “Old-treated” and “Old-Washout”. […]
(§1) Spontaneous alternation in the Y-Maze: Mice were tested in a Y maze test as an assessment of working memory. […] The alternation rate was calculated and was expressed as a percentage: […]

old mice = test: Spontaneous alternation in the Y-Maze (working memory), normal aging; type: in vivo, mouse; conditions: GL-II-73 in drinking water 8 weeks (30 mg/kg) vs old mice vehicle (52.6%; young 79.6%), p=0.01
Source text: The percentage of alternation during the Y maze test can be considered as an index of working memory performance (50% of alternation corresponding to a random alternation rate). […] ANOVA analysis indicates a significant difference between all groups (F(2;25)=11.34; p=0.0003).
Animals: For the experiments described above, young (n=11, age 2 months) and old male mice (N=23) were purchased from Charles River. Old mice were obtained at the age of 9-10 months and were kept in the animal facility until they reached the age of 22 months. Young mice (2 months old) were purchased when old mice had already reached the age of 22 months. All animals were single housed. Experiments were performed on mice aged 2 months (“young”) or 22 months (“old”) at the beginning of the experimental protocol. The second set of experiments with the Washout group included 8 young mice and 22 old mice. Old mice were split into 3 groups of 7-8 between “Old”, “Old-treated” and “Old-Washout”. Finally, the pilot with the 5×FAD mice was performed with 15 heterozygote 5×FAD mice, bred in the animal facility of the Centre for Addiction and Mental Health, Toronto (ON, Canada). […]
as §1

For `C#Cc1ccc2c(c1)C(c1ccccc1F)=N[C@H](C)c1c(C(=O)N(C)C)ncn1-2` (stereo in doubt) [GL-II-73, 8-ethynyl-6-(2-fluorophenyl)-N,N,4-trimethyl-4H-benzo[f]imidazo[1,5-a][1,4]diazepine-3-carboxamide], the “alternation performance in the Y-Maze test” value (heterozygous 5×FAD mice) was “a reversal of this decrease in alternation performance in the GL-II-73 treated group, although also not reaching statistical significance” and the “alternation rate in the Y maze test” value (old mice) was “higher alternation rate than old mice receiving only vehicle”.
